Measurements taken from patent US9751854B2 (Millennium Pharmaceuticals, Inc., priority 2014, dated 2017).
pIC50: −log10 of the molar value.

Target: human VPS34 (Homo sapiens (Human), UniProt Q8NEB9)
Assay: Human VPS34 enzyme assay (Adapta TR-FRET ADP detection)
Assay type: biochemical
Parameters: Percent Inhibition: dose or concentration left out as unconfirmed
Conditions: for pIC50: IC50 range class

Sequence of human VPS34 (Q8NEB9 whole entry): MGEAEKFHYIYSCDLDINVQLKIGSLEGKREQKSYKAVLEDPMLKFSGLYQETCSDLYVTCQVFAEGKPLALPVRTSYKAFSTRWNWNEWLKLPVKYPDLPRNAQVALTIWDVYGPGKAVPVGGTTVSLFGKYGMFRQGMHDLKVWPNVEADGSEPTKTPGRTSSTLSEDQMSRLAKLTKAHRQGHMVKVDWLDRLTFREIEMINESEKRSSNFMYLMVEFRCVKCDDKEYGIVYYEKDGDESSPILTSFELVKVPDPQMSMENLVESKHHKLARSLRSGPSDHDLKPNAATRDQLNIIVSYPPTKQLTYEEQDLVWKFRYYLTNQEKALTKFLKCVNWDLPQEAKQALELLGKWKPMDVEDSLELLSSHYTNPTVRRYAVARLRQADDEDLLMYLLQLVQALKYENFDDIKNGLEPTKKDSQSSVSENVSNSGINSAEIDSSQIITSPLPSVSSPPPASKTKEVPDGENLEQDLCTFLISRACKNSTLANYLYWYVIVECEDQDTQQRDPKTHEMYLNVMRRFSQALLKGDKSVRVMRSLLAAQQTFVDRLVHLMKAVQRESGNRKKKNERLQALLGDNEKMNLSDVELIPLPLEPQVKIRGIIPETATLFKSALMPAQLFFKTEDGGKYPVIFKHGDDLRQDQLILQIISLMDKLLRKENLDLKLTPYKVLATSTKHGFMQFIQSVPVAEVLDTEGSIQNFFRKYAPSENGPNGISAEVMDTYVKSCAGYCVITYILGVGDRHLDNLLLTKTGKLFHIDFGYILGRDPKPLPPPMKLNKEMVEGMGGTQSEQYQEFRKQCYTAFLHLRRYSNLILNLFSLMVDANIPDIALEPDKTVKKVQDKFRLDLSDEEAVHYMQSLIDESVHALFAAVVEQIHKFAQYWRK

pIC50 | Percent Inhibition [%] | Structure (SMILES)
7.30 to 8.00 | – | CNc1ncc(-c2ccnc(NC(C)=O)c2)cc1C(=O)NC12CC(C1)C2 [Compound I-160, 2′-acetamido-N-(bicyclo[1.1.1]pent-1-yl)-6-(methylamino)-3,4′-bipyridine-5-carboxamide]
7.30 to 8.00 | – | CC(=O)Nc1cc(-c2cnc(N(C)C)c(C(=O)NC34CC(C3)C4)c2)ccn1 [Compound I-283, 2′-Acetamido-N-(bicyclo[1.1.1]pent-1-yl)-6-(dimethylamino)-3,4′-bipyridine-5-carboxamide]
< 7.00 | 100 | CC(=O)Nc1cc(-c2cc(N(C)S(C)(=O)=O)c(C)[n+]([O-])c2)ccn1 [Compound I-129, N-(4-{6-methyl-5-[methyl(methylsulfonyl)amino]-1-oxidopyridin-3-yl}pyridin-2-yl)acetamide]
7.30 to 8.00 | – | CC(=O)Nc1cc(-c2cnc(N)c(C(=O)N3CCOCC3)c2)ccn1 [Compound I-152, N-[6-amino-5-(morpholin-4-ylcarbonyl)-3,4′-bipyridin-2′-yl]acetamide]
> 8.00 | – | CC(=O)Nc1cc(-c2cnc(N)c(S(=O)(=O)N(C)Cc3ccccc3)c2)ccn1 [Compound I-76, N-{6-amino-5-[benzyl(methyl)sulfamoyl]-3,4′-bipyridin-2′-yl}acetamide]
< 7.00 | – | CC(=O)Nc1cc(-c2cnc(NCC3CC3)c(NCC3CC3)c2)ccn1 [Compound I-65, N-{5,6-bis[(cyclopropylmethyl)amino]-3,4′-bipyridin-2′-yl}acetamide]
> 8.00 | – | CC(=O)Nc1cc(-c2cnc(C)c(NS(=O)(=O)c3ccc(Cl)cc3Cl)c2)ccn1 [Compound I-30, N-(5-{[(2,4-dichlorophenyl)sulfonyl]amino}-6-methyl-3,4′-bipyridin-2′-yl)acetamide]
7.30 to 8.00 | – | Cc1ncc(-c2ccnc(Nc3nc4ccccc4s3)c2)cc1NS(=O)(=O)c1ccc(F)cc1F [Compound I-271, N-[2′-(1,3-benzothiazol-2-ylamino)-6-methyl-3,4′-bipyridin-5-yl]-2,4-difluorobenzenesulfonamide]
7.00 to 7.30 | – | CC(=O)Nc1cc(-c2cnc(N)c(S(=O)(=O)O)c2)ccn1 [Compound I-122, 2′-acetamido-6-amino-3,4′-bipyridine-5-sulfonic acid]
7.30 to 8.00 | – | CC(=O)Nc1cc(-c2cnc(C)c(S(N)(=O)=O)c2)ccn1 [Compound I-395, N-(6-methyl-5-sulfamoyl-3,4′-bipyridin-2′-yl)acetamide]
7.00 to 7.30 | – | CC(=O)Nc1cc(-c2cncc(S(=O)(=O)NCc3ccccc3)c2)ccn1 [Compound I-321, N-[5-(benzylsulfamoyl)-3,4′-bipyridin-2′-yl]acetamide]
> 8.00 | – | CCN(CC)C(=O)c1cc(-c2ccnc(NC(C)=O)c2)cnc1N [Compound I-27, 2′-acetamido-6-amino-N,N-diethyl-3,4′-bipyridine-5-carboxamide]
7.30 to 8.00 | – | CC(=O)Nc1cc(-c2cnc(C)c(NS(=O)(=O)c3cc(Cl)sc3Cl)c2)ccn1 [Compound I-465, N-[5-{[(2,5-dichloro-3-thienyl)sulfonyl]amino}-6-methyl-3,4′-bipyridin-2′-yl)acetamide]
7.00 to 7.30 | – | COC(=O)Nc1cc(-c2cncc(C(=O)C3CC3)c2)ccn1 [Compound I-180]
7.00 to 7.30 | – | Cc1cc(Nc2cc(-c3cnc(Cl)c(NS(=O)(=O)c4ccc(F)cc4F)c3C)ccn2)ccn1 [Compound I-272, N-{6-chloro-4-methyl-2′-[(2-methylpyridin-4-yl)amino]-3,4′-bipyridin-5-yl}-2,4-difluorobenzenesulfonamide]
< 7.00 | – | CC(=O)Nc1cc(-c2cnc(C)c(OCC3CC3)c2)ccn1 [Compound I-492, N-[5-(cyclopropylmethoxy)-6-methyl-3,4′-bipyridin-2′-yl]acetamide]
> 8.00 | – | CCN(CC)S(=O)(=O)c1cncc(-c2ccnc(NC(C)=O)c2)c1 [Compound I-120, N-[5-(diethylsulfamoyl)-3,4′-bipyridin-2′-yl]acetamide]
7.00 to 7.30 | – | CC(=O)Nc1cc(-c2cnc(N)c(S(=O)(=O)NCC3CC3)c2C)ccn1 [Compound I-49, N-{6-amino-5-[(cyclopropylmethyl)sulfamoyl]-4-methyl-3,4′-bipyridin-2′-yl}acetamide]
> 8.00 | – | CC(=O)Nc1cc(-c2cnc3ccn(S(=O)(=O)c4ccccc4)c3c2)ccn1 [Compound I-23, N-{4-[1-(phenylsulfonyl)-1H-pyrrolo[3,2-b]pyridin-6-yl]pyridin-2-yl}acetamide]
> 8.00 | – | CC(=O)Nc1cc(-c2cnc(N)c(S(=O)(=O)Nc3cccc(Cl)c3)c2)ccn1 [Compound I-97, N-[6-amino-5-[(3-chlorophenyl)sulamoyl]-3,4′-bipyridin-2′-yl]acetamide]
7.30 to 8.00 | – | COc1nccc(Nc2cc(-c3cnc(N)c(C(=O)N(C)C45CC(C4)C5)c3)ccn2)n1 [Compound I-230, 6-amino-N-(bicyclo[1.1.1]pent-1-yl)-2′-((2-methoxypyrimidin-4-yl)amino)-N-methyl-[3,4′-bipyridine]-5-carboxamide]

pIC50 | Percent Inhibition [%] | Structure (SMILES)
7.30 to 8.00 | – | Cc1ncc(-c2ccnc(Nc3ccnc(C4CC4)n3)c2)cc1C(=O)N1CCC1 [Compound I-246, azetidin-1-yl{2′-[(2-cyclopropylpyrimidin-4-yl)amino]-6-methyl-3,4′-bipyridin-5-yl}methanone]
> 8.00 | – | CC(=O)Nc1cc(-c2cnc(C)c(NS(=O)(=O)c3c(F)cccc3F)c2)ccn1 [Compound I-150, N-(5-{[(2,6-difluorophenyl)sulfonyl]amino]-6-methyl-3,4′-bipyridin-2′-yl)acetamide]
7.00 to 7.30 | – | Cc1nccc(Nc2cc(-c3cc(N)c4ccnn4c3)ccn2)n1 [Compound I-480, 6-{2-[(2-methylpyrimidin-4-yl)amino]pyridin-4-yl}pyrazolo[1.5-a]pyridin-4-amine]
> 8.00 | – | CC(=O)Nc1cc(-c2cnc(C)c(NS(=O)(=O)c3ccccc3C)c2)ccn1 [Compound I-211, N-(6-methyl-5-{[(2-methylphenyl)sulfonyl]amino}-3,4′-bipyridin-2′-yl)acetamide]
7.30 to 8.00 | – | Cc1nccc(Nc2cc(-c3cncc(C(C)Oc4ccccc4F)c3)ccn2)n1 (stereo not shown) [Compound I-422, 5-[1-(2-fluorophenoxy)ethyl]-N-(2-methylpyrimidin-4-yl)-3,4′-bipyridin-2′-amine]
> 8.00 | – | CC(=O)Nc1cc(-c2cnc(N)c(C(=O)N3CCCCC3)c2)ccn1 [Compound I-10, N-[6-amino-5-(piperidin-1-ylcarbonyl)-3,4′-bipyridin-2′-yl]acetamide]
7.30 to 8.00 | – | CC(=O)Nc1cc(-c2cncc(S(=O)(=O)N3CCC(F)(F)C3)c2)ccn1 [Compound I-118, N-{5-[(3,3-difluoropyrrolidin-1-yl)sulfonyl]-3,4′-bipyridin-2′-yl}acetamide]
< 7.00 | – | CC(=O)Nc1cc(-c2cnc(C)c(N(CCO)S(=O)(=O)c3ccc(F)cc3F)c2)ccn1 [Compound I-319, N-(5-{[(2,4-difluorophenyl)sulfonyl](2-hydroxyethyl)amino}-6-methyl-3,4′-bipyridin-2′-yl]acetamide]
> 8.00 | – | CC(=O)Nc1cc(-c2cnc(C)c(NS(=O)(=O)c3cccc(C(C)(C)C)c3)c2)ccn1 [Compound I-70]
7.30 to 8.00 | – | CC(=O)Nc1cc(-c2cnc(Cl)c(N3CCCS3(=O)=O)c2C)ccn1 [Compound I-425, N-[6-chloro-5-(1,1-dioxidoisothiazolidin-2-yl)-4-methyl-3,4′-bipyridin-2′-yl]acetamide]
7.30 to 8.00 | – | CC(=O)Nc1cc(-c2cnc(C)c(N3CCCS3(=O)=O)c2)ccn1 [Compound I-88, N-[5-(1,1-dioxidoisothiazolidin-2-yl)-6-methyl-3,4′-bipyridin-2′-yl]acetamide]
7.30 to 8.00 | – | Cc1c(-c2ccnc(Nc3ccnc(C4CC4)n3)c2)cnc(Cl)c1C(=O)N1CCC1 [Compound I-361, azetidin-1-yl(6-chloro-2′-((2-cyclopropylpyrimidin-4-yl)amino)-4-methyl-[3,4′-bipyridin]-5-yl)methanone]
> 8.00 | – | CC(=O)Nc1cc(-c2cnc(N)c(C(=O)N3CCC(C)CC3)c2)ccn1 [Compound I-81, N-{6-amino-5-[[4-methylpiperidin-1-yl)carbonyl]-3,4′-bipyridin-2′-yl}acetamide]
7.00 to 7.30 | – | CC(=O)Nc1cc(-c2cnc(N)c(C(=O)NC3CCOCC3)c2)ccn1 [Compound I-210, 2′-acetamido-6-amino-N-(tetrahydro-2H-pyran-4-yl)-3,4′-bipyridine-5-carboxamide]
7.30 to 8.00 | – | Cc1c(-c2ccnc(Nc3ccnc(C4CC4)n3)c2)cnc(Cl)c1NS(=O)(=O)c1ccc(F)cc1F [Compound I-296, N-{6-chloro-2′-[(2-cyclopropylpyrimidin-4-yl)amino]-4-methyl-3,4′-bipyridin-5-yl}-2,4-difluorobenzenesulfonamide]
7.30 to 8.00 | – | CCN(CC)S(=O)(=O)c1cc(-c2ccnc(NC(C)=O)c2)cnc1C [Compound I-370, N-[5-(diethylsulfamoyl)-6-methyl-3,4′-bipyridin-2′-yl]acetamide]
7.00 to 7.30 | – | CC(=O)Nc1cc(-c2cncc(S(C)(=O)=O)c2)ccn1 [Compound I-51, N-[5-(methylsulfonyl)-3,4′-bipyridin-2′-yl]acetamide]
> 8.00 | – | COc1ccccc1S(=O)(=O)Nc1cc(-c2ccnc(NC(C)=O)c2)cnc1C [Compound I-74, N-(5-{[(2-methoxyphenyl)sulfonyl]amino}-6-methyl-3,4′-bipyridin-2′-yl)acetamide]
7.30 to 8.00 | – | CC(=O)Nc1cc(-c2cnc(Cl)c(NS(=O)(=O)c3cccc4ncccc34)c2C)ccn1 [Compound I-437, N-{6-chloro-4-methyl-5-[(quinolin-5-ylsulfonyl)amino]-3,4′-bipyridin-2′-yl}acetamide]
> 8.00 | – | Cc1c(-c2ccnc(Nc3ccnc(-c4ccccc4)n3)c2)cnc(Cl)c1NS(=O)(=O)c1ccc(F)cc1F [Compound I-264, N-{6-chloro-4-methyl-2′-[(2-phenylpyrimidin-4-yl)amino]-3,4′-bipyridin-5-yl}-2,4-difluorobenzenesulfonamide]
7.30 to 8.00 | – | CC(=O)Nc1cc(-c2cnc(Cl)c(NS(=O)(=O)c3ccccc3)c2C)ccn1 [Compound I-312, N-{6-chloro-4-methyl-5-[(phenylsulfonyl)amino]-3,4′-bipyridin-2′-yl}acetamide]
